Some results are limits rather than exact numbers.

This test addresses T1, Axl (Homo sapiens, UniProt P30530).
T1 construct: endogenous in cells; host or cells: HeLa cells
T1 sequence (P30530 26-894): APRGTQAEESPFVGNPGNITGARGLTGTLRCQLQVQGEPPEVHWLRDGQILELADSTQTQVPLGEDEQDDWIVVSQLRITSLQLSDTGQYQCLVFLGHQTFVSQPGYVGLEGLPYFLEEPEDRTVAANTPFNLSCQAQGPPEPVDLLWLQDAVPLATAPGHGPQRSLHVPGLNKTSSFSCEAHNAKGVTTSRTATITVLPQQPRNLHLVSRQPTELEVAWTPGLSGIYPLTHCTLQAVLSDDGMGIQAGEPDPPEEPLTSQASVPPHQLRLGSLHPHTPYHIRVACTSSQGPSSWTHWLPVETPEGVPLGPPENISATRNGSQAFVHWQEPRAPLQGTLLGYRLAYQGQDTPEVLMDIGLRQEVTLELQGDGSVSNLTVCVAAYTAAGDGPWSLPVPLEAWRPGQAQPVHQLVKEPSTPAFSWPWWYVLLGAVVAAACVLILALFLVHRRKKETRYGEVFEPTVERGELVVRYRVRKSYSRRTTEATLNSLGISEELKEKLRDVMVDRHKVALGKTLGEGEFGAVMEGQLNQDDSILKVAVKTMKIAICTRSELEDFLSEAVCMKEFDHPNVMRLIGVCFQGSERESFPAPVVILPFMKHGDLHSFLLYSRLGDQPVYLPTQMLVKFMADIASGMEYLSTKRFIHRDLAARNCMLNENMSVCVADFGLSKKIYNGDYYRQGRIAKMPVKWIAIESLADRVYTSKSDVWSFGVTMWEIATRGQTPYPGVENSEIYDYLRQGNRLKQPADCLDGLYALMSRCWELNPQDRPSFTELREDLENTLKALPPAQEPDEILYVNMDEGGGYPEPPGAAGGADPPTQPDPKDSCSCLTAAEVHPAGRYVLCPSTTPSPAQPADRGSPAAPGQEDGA
In words: Phospho-Akt In-Cell Western Assay (inhibition of Axl activity). Type of test: cell-based. Conditions: Hela cells, stimulated by Axl-antibody cross-linking, phospho-Akt chemiluminescence normalized to relative cell number. The method, then:
The compounds of the invention were tested in the following assay for their ability to inhibit Axl activity.
Phospho-Akt In-Cell Western Assay
• Cell culture plate: 96 well assay plate (Corning 3610), white, clear bottom, tissue-culture treated. • Cells: Hela cells. • Starvation medium: For Axl stimulation: 0.5% FCS (fetal calf serum) in DMEM, plus Axl/Fc (extracellular domain of AXL fused to imunoglobulin Fc region) (R&D, 154-AL) 500 ng/mL. • For EGF (epidermal growth factor) stimulation: 0.5% FCS in DMEM (Dulbecco's modified Eagles medium). • Poly-L-Lysine 0.01% solution (the working solution): 10 μg/ml, dilute In PBS (phosphate buffered saline). • Axl antibody cross-linking: • 1st: Mouse anti-Axl (R&D, MAB154). • 2nd: Biotin-SP-conjugated AffiniPure goat anti-mouse IgG (H+L) (Jackson ImmunoResearch #115-065-003). • Fixing buffer: 4% formaldehyde in PBS. • Wash buffer: 0.1% TritonX-100 in PBS. • Quenching buffer: 3% H2O2, 0.1% Azide in wash buffer, Azide and hydrogen peroxide (H2O2) are added fresh. • Blocking buffer: 5% BSA in TBST (tris buffered saline plus 0.1% Tween 20). • Primary antibody: Rabbit anti-human Phospho-Akt antibody (Cell Signaling 9271): 1×250 diluted in blocking buffer. • Secondary antibody: HRP (horse radish peroxidase)-conjugated Goat anti-Rabbit secondary, stock solution: Jackson ImmunoResearch (Goat anti-Rabbit HRP, #111-035-144) 1:1 diluted in glycerol, store at −20° C. The working solution: 1×2000 dilution of stock in blocking buffer. • Chemiluminescent working solution (Pierce, 37030): SuperSignal ELISA (enzyme linked immunosorbant assay) Pico Chemiluminescent substrate. • Crystal Violet solution: Stock: 2.5% Crystal violet in methanol, filtered and kept at ambient temperature. The working solution: dilute the stock 1:20 with PBS immediately before use. • 10% SDS: working solution: 5% SDS (sodium dodecylsulfate), diluted in PBS Methods: Day 1:
A 96 well TC (tissue culture treated) plate was coated with 10 μg/mL poly-L-Lysine at 37° C. for 30 min, washed twice with PBS, and air-dried for 5 minutes before cells were added. Hela cells were seeded at 10,000 cells/well and the cells were starved in 100 μL starvation medium containing Axl/Fc for 24 hrs.
The cells were pre-treated with test compounds by adding 100 μL of 2× test compound to the starvation medium on the cells. The cells were incubated at 37° C. for 1 hr before stimulation.
The cells were stimulated by Axl-antibody cross-linking as follows: A 5× 1st/2nd Axl antibody mixture was made (37.5 μg/mL 1st/100 μg/mL 2nd) in starvation medium and nutated at 4° C. with thorough mixing for 1-2 hours for clustering. The resulting mix was warmed to 37° C. 50 μL of 5× Axl 1st/2nd of antibody cluster was added to the cells and the cells were incubated at 37° C. for 5 min.
After 5 minutes stimulation, the plate was flicked to remove medium and the plate was tapped onto paper towels. Formaldehyde (4.0% in PBS, 100 μL) was added to fix the cells and the cells were incubated at ambient temperature for 20 min without shaking.
The cells were washed with a plate washer buffer to remove the formaldehyde solution. The plate was flicked to removed excess wash buffer and tapped onto paper towels. Quenching buffer (100 μL) was added to each well and the cells were incubated at ambient temperature for 20 minutes without shaking.
The cells were washed with a plate washer buffer to remove the quenching buffer. Blocking buffer (100 μL) was added and the cells were incubated at ambient temperature for at least an hour with gentle shaking.
The cells were washed with a plate washer buffer and diluted primary antibody (50 μL) was added to each well (blocking buffer was added to the negative control wells instead). The plates were incubated overnight at 4° C. with gentle shaking.
The wash buffer was removed, diluted secondary antibody (100 μL) was added, and the cells were incubated at ambient temperature for 1 hour with gentle shaking. […]
With `Nc1nc(Nc2ccc(OCCN3CCCC3)cc2)sc1-c1ncnc2ccccc12` [Compound 5, N^2-(4-(2-(pyrrolidin-1-yl)ethoxy)phenyl)-5-(quinazolin-4-yl)thiazole-2,4-diamine], the IC50 fell in the range of 1 to 10 µM.
To `COc1ccc(Nc2nc(N)c(-c3ccccn3)s2)cc1` [Compound 2, N^2-(4-methoxyphenyl)-5-(pyridin-2-yl)thiazole-2,4-diamine] belongs above 20 µM; to `Nc1nc(Nc2ccc(OCCN3CCCC3)cc2)sc1-c1cnc2ccccc2n1` [Compound 4, N^2-(4-(2-(pyrrolidin-1-yl)ethoxy)phenyl)-5-(quinoxalin-2-yl)thiazole-2,4-diamine], 1 to 10 µM.
As for `COc1cc2ncnc(-c3sc(Nc4ccc(N5CCOCC5)cc4)nc3N)c2cc1OC` [Compound 10, 5-(6,7-dimethoxyquinazolin-4-yl)-N^2-(4-morpholinophenyl)thiazole-2,4-diamine], the figure is 1 to 10 µM; as for `COc1cc2ncnc(-c3sc(Nc4ccc(OCCN5CCCC5)c(Cl)c4)nc3N)c2cc1OC` [Compound 14, N^2-(3-chloro-4-(2-(pyrrolidin-1-yl)ethoxy)phenyl)-5-(6,7-dimethoxyquinazolin-4-yl)thiazole-2,4-diamine], 1 to 10 µM; as for `Nc1nc(Nc2ccc(N3CCN(C4CC5CCC4C5)CC3)cc2)sc1-c1ncnc2ccsc12` (centres unmarked) [Compound 12, N^2-(4-(4-(bicyclo[2.2.1]heptan-2-yl)piperazin-1-yl)phenyl)-5-(thieno[3,2-d]pyrimidin-4-yl)thiazole-2,4-diamine], 1 to 10 µM.
As for `COc1cc2ncnc(-c3sc(Nc4ccc(N5CCN(C)CC5)cc4)nc3N)c2cc1OC` [Compound 11, 5-(6,7-dimethoxyquinazolin-4-yl)-N^2-(4-(4-methylpiperazin-1-yl)phenyl)thiazole-2,4-diamine], the figure is 1 to 10 µM.
For the molecule `COc1cc2ncnc(-c3sc(Nc4ccc(OCCN5CCCC5)cc4)nc3N)c2cc1OC` [Compound 1, 5-(6,7-dimethoxyquinazolin-4-yl)-N^2-(4-(2-(pyrrolidin-1-yl)ethoxy)phenyl)thiazole-2,4-diamine], the half-inhibitory concentration (IC50) was 1 to 10 µM.
To `COc1cc(Nc2nc(N)c(-c3ncnc4ccccc34)s2)cc(OC)c1OC` [Compound 6, 5-(quinazolin-4-yl)-N^2-(3,4,5-trimethoxyphenyl)thiazole-2,4-diamine] belongs above 20 µM; to `Nc1nc(Nc2ccc(OCCN3CCCC3)cc2)sc1-c1nc2ccccc2s1` [Compound 9, 5-(benzo[d]thiazol-2-yl)-N^2-(4-(2-(pyrrolidin-1-yl)ethoxy)phenyl)thiazole-2,4-diamine], 1 to 10 µM; to `COc1cc(Nc2nc(N)c(-c3cnc4ccccc4n3)s2)cc(OC)c1OC` [Compound 3, 5-(quinoxalin-2-yl)-N^2-(3,4,5-trimethoxyphenyl)thiazole-2,4-diamine], 1 to 10 µM.
To `Nc1nc(Nc2ccc(N3CCOCC3)cc2)sc1-c1nccc2ccccc12` [Compound 7, 5-(isoquinolin-1-yl)-N^2-(4-morpholinophenyl)thiazole-2,4-diamine] belongs 10 to 20 µM; to `Nc1nc(Nc2ccc(OCCN3CCCC3)cc2)sc1-c1nccc2ccccc12` [Compound 8, 5-(isoquinolin-1-yl)-N^2-(4-(2-(pyrrolidin-1-yl)ethoxy)phenyl)thiazole-2,4-diamine], above 20 µM.
In turn, `COc1cc2ncnc(-c3sc(Nc4ccc(N5CCN(C6CC7CCC6C7)CC5)cc4)nc3N)c2cc1OC` (centres unmarked) [Compound 13, N^2-(4-(4-(bicyclo[2.2.1]heptan-2-yl)piperazin-1-yl)phenyl)-5-(6,7-dimethoxyquinazolin-4-yl)thiazole-2,4-diamine] showed an IC50 above 20 µM.

For orientation: IC50 means the concentration needed to halve the response being measured.

The values above are taken from patent publication US8288382B2, “Diaminothiazoles useful as Axl inhibitors” (Rigel Pharmaceuticals, Inc., priority 2006, dated 2012).
